Holding throughout (format): in vivo
In experiment [1] the test system is AMARE (Amaranthus retoflexus). The experiment in a line: greenhouse pre-emergence herbicidal test, AMARE. To be noted: 1.0 kg/ha, scale from 0 to 100. An excerpt: (§1) The culture containers used were plastic flowerpots containing loamy sand with approximately 3.0% of humus as the substrate. The seeds of the test plants were sown separately for each species.
(§2) For the pre-emergence treatment, the active ingredients, which had been suspended or emulsified in water, were applied directly after sowing by means of finely distributing nozzles. The containers were irrigated gently to promote germination and growth and subsequently covered with transparent plastic hoods until the plants had rooted. This cover caused uniform germination of the test plants, unless this has been impaired by the active ingredients.
(§3) Depending on the species, the plants were kept at 10-25° C. or 20-35° C. The test period extended over 2 to 4 weeks. During this time, the plants were tended, and their response to the individual treatments was evaluated.
(§4) Evaluation was carried out using a scale from 0 to 100. 100 means no emergence of the plants, or complete destruction of at least the aerial moieties, and 0 means no damage, or normal course of growth. A good herbicidal activity is given at values of at least 70 and a very good herbicidal activity is given at values of at least 85.

Experiment [2] has as its system ALOMY (Alopecurus myosuroides). Briefly: greenhouse pre-emergence herbicidal test, ALOMY. To be noted: scale from 0 to 100.
Excerpt: as §1, §2, §3, §4

Experiment [3] deals with APESV (Apera spica-venti). Briefly: greenhouse pre-emergence herbicidal test, APESV. The settings on record: scale from 0 to 100.
Excerpt: as §1, §2, §3, §4

Experiment [4] has as its system ECHCG (Echinochloa crus-galli). Briefly: greenhouse pre-emergence herbicidal test, ECHCG. To be noted: scale from 0 to 100.
Excerpt: as §1, §2, §3, §4

The subject of a further experiment is SETFA (Setaria faberi). The experiment in a line: greenhouse pre-emergence herbicidal test, SETFA. To be noted: 1.0 kg/ha, scale from 0 to 100.
Excerpt: as §1, §2, §3, §4

The test system of experiment [5] is AMARE (Amaranthus retoflexus). The experiment in a line: greenhouse post-emergence herbicidal test, AMARE. To be noted: 1.0 kg/ha, scale from 0 to 100.
Excerpt: as §1
(§5) For the post-emergence treatment, the test plants were first grown to a height of 3 to 15 cm, depending on the plant habit, and only then treated with the active ingredients which had been suspended or emulsified in water. For this purpose, the test plants were either sown directly and grown in the same containers, or they were first grown separately as seedlings and transplanted into the test containers a few days prior to treatment.
as §3, §4

Experiment [6] deals with CHEAL (Chenopodium album). Briefly: greenhouse post-emergence herbicidal test, CHEAL. To be noted: 1.0 kg/ha, scale from 0 to 100.
Excerpt: as §1, §5, §3, §4

In experiment [7] the test system is ECHCG (Echinochloa crus-galli). Briefly: greenhouse post-emergence herbicidal test, ECHCG. To be noted: scale from 0 to 100.
Excerpt: as §1, §5, §3, §4

A further experiment deals with SETVI (Setaria viridis). Briefly: greenhouse post-emergence herbicidal test, SETVI. The settings on record: 1.0 kg/ha, scale from 0 to 100.
Excerpt: as §1, §5, §3, §4

The test system of experiment [8] is ALOMY (Alopecurus myosuroides). The experiment in a line: greenhouse post-emergence herbicidal test, ALOMY. To be noted: 0.5 kg/ha, scale from 0 to 100.
Excerpt: as §1, §5, §3, §4

Experiment [9] concerns APESV (Apera spica-venti). Briefly: greenhouse post-emergence herbicidal test, APESV. The settings on record: 0.5 kg/ha, scale from 0 to 100.
Excerpt: as §1, §5, §3, §4

As for `CN1C(=O)C(C)(Cc2ccccc2)N(C)C(=O)C1Cc1ccccc1C#N` (single isomer, unassigned) [Example 1 (main isomer 1), 2-[5-Benzyl-1,4,5-trimethyl-3,6-dioxopiperazine-2-ylmethyl]benzonitrile], the “herbicidal activity against AMARE” value in [1] and in [5] was “very good herbicidal activity (a very good herbicidal activity is given at values of at least 85)” in each case. Moreover, the “herbicidal activity against ALOMY” value in experiment [2] (1.0 kg/ha) is “very good herbicidal activity (a very good herbicidal activity is given at values of at least 85)”. In [3] (1.0 kg/ha), the “herbicidal activity against APESV” value is reported as “very good herbicidal activity (a very good herbicidal activity is given at values of at least 85)”. Further, the “herbicidal activity against ECHCG” value in [4] (1.0 kg/ha) and in experiment [7] (1.0 kg/ha) was “very good herbicidal activity (a very good herbicidal activity is given at values of at least 85)” throughout. Further, the “herbicidal activity against SETFA” value in the experiment with SETFA (Setaria faberi) is “very good herbicidal activity (a very good herbicidal activity is given at values of at least 85)”. Besides, the “herbicidal activity against CHEAL” value in [6] is given as “very good herbicidal activity (a very good herbicidal activity is given at values of at least 85)”. The “herbicidal activity against SETVI” value in the experiment with SETVI (Setaria viridis) is “very good herbicidal activity (a very good herbicidal activity is given at values of at least 85)”.
On to `CN1C(=O)C(C)(Cc2ccccc2)N(C)C(=O)C1Cc1ccccc1C#N` (single isomer, unassigned) [Example 1 (minor isomer 2), 2-[5-Benzyl-1,4,5-trimethyl-3,6-dioxopiperazine-2-ylmethyl]benzonitrile], for which the “herbicidal activity against ALOMY” value in experiment [2] (0.5 kg/ha) and in [8] was “very good herbicidal activity (a very good herbicidal activity is given at values of at least 85)” in each case. Further, the “herbicidal activity against APESV” value in experiment [3] (0.5 kg/ha) and in experiment [9] was “very good herbicidal activity (a very good herbicidal activity is given at values of at least 85)” in each case. Further, the “herbicidal activity against ECHCG” value in [4] (0.5 kg/ha) and in experiment [7] (0.5 kg/ha) was “very good herbicidal activity (a very good herbicidal activity is given at values of at least 85)” in each case.

For the origin of these results see patent publication US20100173777A1, “Piperazine Compounds Having Herbicidal Action” (BASF SE, priority 2007, published 2010).
